US9125898B2, “Acetam derivatives for pain relief” (NEUROTUNE AG, priority 2008, dated 2015)
Entries after “also recorded” stand apart in the source; their conditions may differ.

Columns and labels:
Assay type in all cases: in vivo
[1] = system: chronic constriction injury induced hyperalgesia in the rat; assay: Chronic constriction injury induced hyperalgesia in the rat (paw-pressure test); conditions: for Paw pressure, pre-test before all treatments: baseline, drug 100 mg/kg p.o.; for Paw pressure, 5 day 30 min / Paw pressure, 10 day 30 min / Paw pressure, 14 day 30 min / Paw pressure, 14 day 4 h / Paw pressure, 14 day 8 h / Paw pressure, 15 day 24 h / Paw pressure, 18 day 3 days: 100 mg/kg p.o. once a day for 14 days
Description: In the repeated administration protocol, NT-13317 was orally administered at 100 mg/kg in 1% CMC once a day for 14 days starting from the day of sciatic nerve ligation.
Peripheral rat mononeuropathy (Chronic constriction injury): Neuropathy was induced according to the procedure described by Bennett and Xie (Bennett G J, Xie Y K. A peripheral mononeuropathy in rat that produces disorders of pain sensation like those seen in man. Pain 1988; 33: 87-107).
Briefly, rats were anaesthetized with chloral hydrate 400 mg/kg intraperitoneally (i.p.); under aseptic conditions, the right common sciatic nerve was exposed at the level of the middle thigh by blunt dissection. Proximal to the trifurcation, the nerve was carefully freed from the surrounding connective tissue and four chromic cat gut ligatures (4-0, Ethicon, Norderstedt, Germany) were tied loosely around it with about 1 mm spacing. After haemostasis was confirmed, the incision was closed in layers. Then animals were allowed to recover from anaesthesia and surgery and were kept one per cage with free access to water and standard laboratory chow.
(§1) Statistical analysis: All experimental results are given as the mean±S.E.M. An analysis of variance, ANOVA, followed by Fisher's protected least significant difference procedure for post hoc comparison, were used to verify significance between two means of behavioural results. Data were analyzed with the StatView software for the Macintosh (1992). P values≦0.05 were considered significant.
Data of mechanical threshold (PWT) were converted to a percentage of the maximal possible effect (% MPE), according to Veneroni, O. et al. as follows: %MPE=(left dose PWT−left pre-dose control PWT)/(left naïve PWT−left pre-dose PWT)*100
The obtained % MPE were employed for ED50 calculation (obtained by Grafit v. 5.0), defined as the dose producing 50% reversal of mechanical allodynia.

[2] = system: oxaliplatin induced hyperalgesia in the rat; assay: Oxaliplatin induced hyperalgesia in the rat paw-pressure test; conditions: for Paw pressure, pre-test before all treatments: baseline, drug 100 mg/kg p.o.; for Paw pressure, 1a week - 30 min / Paw pressure, 2a week - 30 min / Paw pressure, 3a week - 30 min / Paw pressure, 3a week - 4 h / Paw pressure, 3a week - 8 h / Paw pressure, 3a week - 24 h: drug 100 mg/kg p.o. once daily
Description: Drugs: The following substance was used: NT-13317 (batch No. RR0011-184A1 supplied by Brane Discovery Srl, Gerenzano Italy). NT-13317 was dissolved in DMSO 20%, 10% glucose and administered at the dose of 10, 30 and 100 mg/kg p.o.
Gabapentin (Sigma) was dissolved in 1% CMC (carboxymethylcellulose-Sigma) and orally administered at 100 mg/kg, and dissolved in saline and i.v. administered at 3 mg/kg.
Oxaliplatin model: A peripheral neuropathy was induced in adult rats, by administration of oxaliplatin (Tocris), at 2.4 mg/kg i.p. in saline once a day on days 1, 2, 3, 4, 5, 8, 9, 10, 11, 12, 15, 16, 17, 18, 19 (cumulative dose 36 mg/kg) according to [1].
In the first experiment NT-13317 and gabapentin were given chronically at the dose 100 mg/kg po starting 3 days before oxaliplatin and every day for 5 days/week for 3 weeks.
A dose-response experiment was then performed with NT-13317 (10, 30 and 100 mg/kg po) using the same treatment schedule.
Paw pressure test: Paw mechanical sensitivity was determined using a Randall & Selitto apparatus exerting a force that increases at constant rate (32 g/s). The stimulus at which rats withdrawn the paw was evaluated before and at different times after treatment. Results represent the mean of mechanical thresholds expressed as grams. To avoid any possible damage to the animal paw the maximum applied force was fixed at 240 g.
as §1, with “behavioral” for “behavioural”

[3] = system: MIA induced hyperalgesia in the rat; assay: MIA induced hyperalgesia in the rat (paw-pressure test); conditions: for Mechanical threshold, before treatment, first day basal: baseline
Excerpt: Peripheral neuropathic induced in rats by administration into the left knee joint of MIA mimics chronic pain condition of osteoarthritis found in a large part of population over 60 years. The MIA test represents an useful and predictive model to study the anti-hyperalgesic potential of a drug in human osteoarthritic condition.
Drugs: The following substances were used: NT-11624 (batch n 66-MM3/16 supplied by Brane Discovery Sri, Gerenzano Italy) and tramadol (Tocris, UK). […] Control rats received saline only.
Sodium monoiodoacetate injection: A single intra-articular injection of sodium iodoacetate (MIA) was introduced into the right knee joint. […] Briefly, rats were deeply anaesthetized by ethylic ether. Following abolition of the hindpaw pinch withdrawal reflex, a 27-gauge needle was introduced into the joint cavity between the tibial plateau and femoral condyles. Once in place, 2 mg of MIA were solubilized in a volume of 25 ul and injected into the joint and the animal was allowed to recover for 14 days prior to pain assessment. It has consistently been shown that this dose of MIA causes osteoarthritic-like focal lesions in articular cartilage and subchondral bone thickening 14 days after administration Guingamp C. et al. Arthritis Rheum 40, 1670-9 (1997). Therefore this model can easily and quickly reproduce osteoarthritic-like lesions and functional impairment in rats, similar to that observed in human disease.
The administration of MIA induces in rats a hyperalgesic response to mechanical stimuli that reaches its statistical significance 5 days after administration and persists for 4 weeks (Fernihough et al. Pain 112:83-93 (2004)).
Control rats were treated with an equal volume of saline. […]
Starting from day 17 after MIA injection, paw pressure tests were performed.
Mechanical hyperalgesia: Paw mechanical sensitivity was determined using a Randall & Selitto apparatus exerting a force that increases at constant rate (32 g/s). The stimulus at which rats withdrawn the paw was evaluated before treatment (First day basal) and at the end of the treatment as following: before last treatment (pre-dose), and after last treatment (15, 30, 45, 60 min, 24, 48 and 72 h).
Results represent the mean of mechanical thresholds expressed as grams. To avoid any possible damage to the animal paw the maximum applied force was fixed at 240 g.

[4] = MIA rats, 14 days b.i.d. p.o. (NT-11624 150 mg/kg, tramadol 40 mg/kg)
[5] = MIA rats, single p.o. administration on saline b.i.d. (NT-11624 150 mg/kg, tramadol 40 mg/kg)

SMILES: Cc1ccc(N2C(=O)CN3C(=O)CCC32)cc1 (stereo not shown) [NT-13317, 1-p-tolyl-tetrahydropyrrolo[1,2a]imidazole-2,5-dione]
- Paw pressure, pre-test before all treatments ([1]; CCI group): 60.7 ± 2.7 g
- Paw pressure, 5 day 30 min ([1]; CCI): 41.6 ± 4.2 g
- Paw pressure, 10 day 30 min ([1]; CCI): 51.9 ± 5.2 g
- Paw pressure, 14 day 30 min ([1]; CCI): 53.4 ± 5.5 g
- Paw pressure, 14 day 4 h ([1]; CCI): 52.9 ± 5.2 g
- Paw pressure, 14 day 8 h ([1]; CCI): 51.6 ± 4.4 g
- Paw pressure, 15 day 24 h ([1]; CCI): 47.8 ± 4.7 g
- Paw pressure, 18 day 3 days ([1]; CCI): 43.6 ± 5.1 g
- Paw pressure, pre-test before all treatments ([1]; SHAM group): 62.3 ± 3.5 g
- Paw pressure, 5 day 30 min ([1]; SHAM): 57.7 ± 4.3 g
- Paw pressure, 10 day 30 min ([1]; SHAM): 55.8 ± 5.0 g
- Paw pressure, 14 day 30 min ([1]; SHAM): 59.2 ± 3.9 g
- Paw pressure, 14 day 4 h ([1]; SHAM): 57.2 ± 4.4 g
- Paw pressure, 14 day 8 h ([1]; SHAM): 63.2 ± 6.0 g
- Paw pressure, 15 day 24 h ([1]; SHAM): 61.6 ± 5.2 g
- Paw pressure, 18 day 3 days ([1]; SHAM): 60.7 ± 6.2 g
- Activity relative to gabapentin ([1]; i.c.v. single administration): ten times more active than gabapentin
- Effect on paw pressure test after the last administration (in words) ([1]; p.o. 100 mg/kg once a day for 14 days from the day of sciatic nerve ligation): significant effect on paw pressure test up to 24 hr
- Dose-response experiment, 100 mg/kg ([2]; 100 mg/kg p.o.): confirmed the results of the first experiment
- Effect 4 h after administration at the end of the third week ([2]; 100 mg/kg p.o.): retained maximal efficacy; also recorded: still a beneficial effect
- Effect 8 hr after administration at the end of the third week ([2]; 100 mg/kg p.o.): not any more significant
- Reduction of mechanical hyperalgesia over three weeks of treatment (in words) ([2]; 100 mg/kg p.o. once daily, 5 days/week for 3 weeks): statistically significant reduction of mechanical hyperalgesia; also recorded: maximal at the end of week 3
- Dose-response experiment, lower doses ([2]; 10 and 30 mg/kg p.o.): inactive
- Paw pressure, pre-test before all treatments ([2]; oxaliplatin i.p. group): 58.9 ± 3.7 g
- Paw pressure, 1a week - 30 min ([2]; oxaliplatin i.p.): 68.7 ± 5.2 g
- Paw pressure, 2a week - 30 min ([2]; oxaliplatin i.p.): 74.3 ± 6.1 g
- Paw pressure, 3a week - 30 min ([2]; oxaliplatin i.p.): 79.2 ± 6.3 g
- Paw pressure, 3a week - 4 h ([2]; oxaliplatin i.p.): 74.3 ± 4.3 g
- Paw pressure, 3a week - 8 h ([2]; oxaliplatin i.p.): 53.5 ± 6.3 g
- Paw pressure, 3a week - 24 h ([2]; oxaliplatin i.p.): 40.6 ± 5.0 g
- Paw pressure, pre-test before all treatments ([2]; vehicle i.p. (no oxaliplatin) group): 60.6 ± 3.9 g
- Paw pressure, 1a week - 30 min ([2]; vehicle i.p. (no oxaliplatin)): 63.0 ± 4.3 g
- Paw pressure, 2a week - 30 min ([2]; vehicle i.p. (no oxaliplatin)): 66.1 ± 4.5 g
- Paw pressure, 3a week - 30 min ([2]; vehicle i.p. (no oxaliplatin)): 74.8 ± 5.4 g
- Paw pressure, 3a week - 4 h ([2]; vehicle i.p. (no oxaliplatin)): 73.8 ± 4.4 g
- Paw pressure, 3a week - 8 h ([2]; vehicle i.p. (no oxaliplatin)): 68.5 ± 3.7 g
- Paw pressure, 3a week - 24 h ([2]; vehicle i.p. (no oxaliplatin)): 69.9 ± 4.6 g

SMILES: COc1cccc(C2(O)CCCCC2CN(C)C)c1 (stereo not shown) [TRAMADOL, tramadol, reference compound]
- Mechanical threshold, after last treatment 15 min [3, 4]: 38.8 ± 2.2 g
- Mechanical threshold, after last treatment 30 min [3, 4]: 36.4 ± 2.9 g
- Mechanical threshold, after last treatment 45 min [3, 4]: 32.8 ± 3.4 g
- Mechanical threshold, before treatment, first day basal ([3]; MIA rats, groups later treated 14 days b.i.d. p.o. (NT-11624 150 mg/kg, tramadol 40 mg/kg)): 59.2 ± 3.1 g
- Mechanical threshold, before treatment, first day basal ([3]; MIA rats, single administration groups (saline 14 days b.i.d. first)): 62.8 ± 3.0 g
- Mechanical threshold, before last treatment, pre-dose ([3]; MIA rats, single administration on saline b.i.d., before the single p.o. dose (NT-11624 150 mg/kg, tramadol 40 mg/kg)): 25.5 ± 3.8 g
- Mechanical threshold, after last treatment 15 min [3, 5]: 39.2 ± 4.1 g
- Mechanical threshold, after last treatment 30 min [3, 5]: 43.4 ± 3.6 g
- Mechanical threshold, after last treatment 45 min [3, 5]: 36.2 ± 3.4 g
- Mechanical threshold, after last treatment 60 min ([3]; MIA rats, single p.o. administration on saline b.i.d., tramadol 40 mg/kg): 27.2 ± 3.4 g
- Effect of a single oral dose on mechanical threshold (in words) ([3]; single oral dose after saline b.i.d. for 14 days (NT-11624 150 mg/kg, tramadol 40 mg/kg)): significant anti-hyperalgesic effect from 15 to 60 min
- Antihyperalgesic activity after the last treatment (in words) ([3]; treatment for 14 days b.i.d. p.o. (NT-11624 150 mg/kg, tramadol 40 mg/kg)): only a weak antihyperalgesic activity 15 and 30 min after the last treatment
